Source: patent US11434227B2, “Broad spectrum antibacterial activity of novel bisbenzimidazoles targeting topoisomerase IA and the synergistic composition of bisbenzimidazole with efflux pump inhibitors against pathogenic bacteria” (Jawaharlal Nehru University (JNU), priority 2016, dated 2022)
Values after ≈ are worked out from the molar mass of the structure shown. Read-outs that look alike come from different tables or passages of the source.

How the values were obtained:
[1] = system: Salmonella typhimurium (MTCC 1251); experiment: Susceptibility (MIC50/MIC90), broth microdilution; conditions: Salmonella enterica
Description: (§1) MICs were determined by the broth microdilution method according to CLSI methods (Clinical and Laboratory Standards Institute, 2005). Inoculants were incubated at 37° C. on cation adjusted Mueller Hinton (MH) Broth for 18 to 24 h. Compound were dissolved in media to 10 doubling dilutions from 128 to 0.125 μg/mL. All the bacterial strains were grown in 96 well plate with low evaporation lid (Falcon, Becton Dickinson) in presence of derivatives of benzimidazoles at 0.125, 0.25, 0.5, 1, 2, 4, 8, 16, 32, 64, 128, 256 μg/mL concentrations. […] Plates were read by Tecan Micro-plate Reader at 600 nm.

[2] = system: Escherichia coli 392; experiment: Susceptibility (MIC50/MIC90), broth microdilution
Description: as §1

[3] = system: E. coli K12 mutant ΔompC; experiment: Susceptibility of E. coli K12 and mutants (MIC90); conditions: Escherichia coli
Description: as §1

[4] = system: Klebsiella planticola (K589); experiment: Susceptibility (MIC50/MIC90), broth microdilution
Description: as §1

[5] = system: E. coli K12 mutant ΔTopIA; experiment: Susceptibility of E. coli K12 and mutants (MIC90); conditions: Escherichia coli
Description: as §1

[6] = system: Mycobacterium tuberculosis H37Rv (virulent); experiment: Susceptibility of Mycobacterium tuberculosis strains (MIC90); assay type: cell-based
[7] = system: Klebsiella planticola (K235); experiment: Susceptibility (MIC50/MIC90), broth microdilution
Description: as §1

[8] = system: isogenic efflux deleted strains; experiment: Susceptibility of isogenic efflux deleted strains versus wild type; assay type: cell-based, Escherichia coli; conditions: in comparison to wild type strains
[9] = system: E. coli K12; experiment: Susceptibility of E. coli K12 and mutants (MIC90); conditions: Escherichia coli
Description: as §1

[10] = system: Staphylococcus sp. (1016); experiment: Susceptibility (MIC50/MIC90), broth microdilution
Description: as §1

[11] = system: Enterococcus sp. (1365); experiment: Susceptibility (MIC50/MIC90), broth microdilution
Description: as §1

[12] = system: Enterococcus sp. (1121); experiment: Susceptibility (MIC50/MIC90), broth microdilution
Description: as §1

[13] = system: Enterococcus sp. (2105); experiment: Susceptibility (MIC50/MIC90), broth microdilution
Description: as §1

[14] = system: E. coli K12 mutant ΔemrA; experiment: Susceptibility of E. coli K12 and mutants (MIC90); conditions: Escherichia coli
Description: as §1

[15] = system: E. coli ATCC 25922; experiment: Neutropenic thigh infection model
Description: The neutropenic mice thigh infection model, fully described by. Craig, was used in this study. Female Balb/c mice (6 mice per dosing group) weighing 20-25 g were rendered neutropenic with 2 intraperitoneal injections of cyclophosphamide (150 mg/kg of body weight 4 days prior to bacterial inoculation and 100 mg/kg 1 day before inoculation) 2 h prior to bacterial inoculation. […] Bacteria were injected into the right thigh of each mouse at time zero. […] Neutropenia was defined as an absolute neutrophil count of 500 polymorphonuclear leukocytes/cm^3 of blood. The bacterial suspension was diluted to a concentration of 10^6 CFU/mL with normal saline. Then, 0.1 mL of the bacterial suspension was injected into each posterior thigh muscle 2 h after the second dose of cyclophosphamide was administered. […] Twenty-four hours after drug treatment was begun, the mice were humanely sacrificed. Right thigh muscles from each mouse were aseptically collected, homogenized and serially diluted 1:10 in phosphate buffer saline, and processed for quantitative cultures.

[16] = system: S. aureus 1016; experiment: Neutropenic thigh infection model; assay type: in vivo, Balb/c mice
Description: Craig, was used in this study.

[17] = system: E. coli K12 mutant ΔacrA; experiment: Susceptibility of E. coli K12 and mutants (MIC90); conditions: Escherichia coli
Description: as §1

[18] = system: Klebsiella planticola (MTCC 2272); experiment: Susceptibility (MIC50/MIC90), broth microdilution; conditions: MTCC2272
Description: as §1

[19] = system: M. tuberculosis; experiment: Effect on virulent and avirulent strains of M. tuberculosis; assay type: cell-based, Mycobacterium tuberculosis
[20] = system: Pseudomonas aeruginosa (MTCC1688); experiment: Susceptibility (MIC50/MIC90), broth microdilution
Description: as §1

[21] = system: Pseudomonas aeruginosa (MTCC 366); experiment: Susceptibility (MIC50/MIC90), broth microdilution; conditions: MTCC366
Description: as §1

[22] = system: Enterococcus sp. (432); experiment: Susceptibility (MIC50/MIC90), broth microdilution
Description: as §1

[23] = system: Staphylococcus sp. (976); experiment: Susceptibility (MIC50/MIC90), broth microdilution
Description: as §1

[24] = system: Enterococcus sp. (1367); experiment: Susceptibility (MIC50/MIC90), broth microdilution
Description: as §1

[25] = system: E. coli K12 mutant ΔompF; experiment: Susceptibility of E. coli K12 and mutants (MIC90); conditions: Escherichia coli
Description: as §1

[26] = system: E. coli K12 mutant ΔtolC; experiment: Susceptibility of E. coli K12 and mutants (MIC90); conditions: Escherichia coli
Description: as §1

[27] = system: Shigella flexineri (MTCC1457); experiment: Susceptibility (MIC50/MIC90), broth microdilution; assay type: cell-based
[28] = system: Klebsiella planticola (K1164); experiment: Susceptibility (MIC50/MIC90), broth microdilution
Description: as §1

[29] = system: Escherichia coli (ATCC 25922); experiment: Susceptibility (MIC, PAE, MBC), broth microdilution
Description: as §1

[30] = system: Mycobacterium tuberculosis H37Ra (avirulent); experiment: Susceptibility of Mycobacterium tuberculosis strains (MIC90); assay type: cell-based
[31] = system: Pseudomonas aeruginosa (Ps162); experiment: Susceptibility (MIC50/MIC90), broth microdilution
Description: as §1

[32] = system: Escherichia coli 385; experiment: Susceptibility (MIC50/MIC90), broth microdilution
Description: as §1

[33] = system: Enterococcus sp.(1150); experiment: Susceptibility (MIC50/MIC90), broth microdilution
Description: as §1

[34] = system: Acinetobacter baumannii (AB312); experiment: Susceptibility (MIC50/MIC90), broth microdilution
Description: as §1

[35] = system: Acinetobacter baumannii (AB387); experiment: Susceptibility (MIC50/MIC90), broth microdilution
Description: as §1

[36] = system: Salmonella typhimurium (St412); experiment: Susceptibility (MIC50/MIC90), broth microdilution; conditions: Salmonella enterica
Description: as §1

[37] = system: Acinetobacter baumannii (MTCC1920); experiment: Susceptibility (MIC50/MIC90), broth microdilution
Description: as §1

[38] = system: E. coli K12 mutant ΔTopIB; experiment: Susceptibility of E. coli K12 and mutants (MIC90); conditions: Escherichia coli
Description: as §1

[39] = system: Staphylococcus sp. (982); experiment: Susceptibility (MIC50/MIC90), broth microdilution
Description: as §1

[40] = Neutropenic thigh, ATCC 25922, single i.v. bolus, 24 h
[41] = Escherichia coli, ATCC25922, Escherichia coli (ATCC 25922), Table 2

**Q.** Which results are given for `CCCCN1CCN(c2ccc3nc(-c4ccc5[nH]c(-c6ccc(OC)c(OC)c6)nc5c4)[nH]c3c2)CC1` [SP12a, 5-(4-butylpiperazin-1-yl)-2′-(3,4-dimethoxyphenyl)-1H,1′H-2,5′-bibenzo[d]imidazole]?
**A.** MIC50 [1]: < 0.25 µg/mL; MIC90 [1]: 0.25 µg/mL (≈ 0.49 µM); MIC50 [2]: 1.5 µg/mL (≈ 2.94 µM); MIC90 [2]: 13.7 µg/mL (≈ 26.8 µM); MIC90 [3]: 6.7 µg/mL (≈ 13.1 µM); MIC50 [4]: 10.3 µg/mL (≈ 20.2 µM); MIC90 [4]: 29.4 µg/mL (≈ 57.6 µM); MIC90 [5]: 3.9 µg/mL (≈ 7.64 µM); MIC90 [6]: 14.6 µg/mL (≈ 28.6 µM); MIC50 [7]: 3.1 µg/mL (≈ 6.07 µM); MIC90 [7]: 25.9 µg/mL (≈ 50.7 µM); sensitisation of efflux deleted strains [8]: more sensitised; MIC90 [9]: 16 µg/mL (≈ 31.3 µM); MIC90 [10]: 5.7 ± 0.046 µg/mL (≈ 11.2 µM); MIC50 ([10]; Staphylococcus): 1.2 µg/mL (≈ 2.35 µM); MIC90 ([10]; Staphylococcus): 5.7 µg/mL (≈ 11.2 µM); MIC50 [11]: < 0.25 µg/mL; MIC90 [11]: < 0.25 µg/mL; MIC50 [12]: < 0.25 µg/mL; MIC90 [12]: 0.88 µg/mL (≈ 1.72 µM); MIC50 [13]: 4.32 µg/mL (≈ 8.46 µM); MIC90 [13]: 12.2 µg/mL (≈ 23.9 µM); MIC90 [14]: 7.9 µg/mL (≈ 15.5 µM); Dose at 0.8 log reduction [15, 40]: 2 mg/kg bw/day; Dose at 3.4 log reduction [15, 40]: 4 mg/kg bw/day; bacterial load reduction ([15]; balb/c mice neutropenia thigh model, gram negative ATCC25922): significant bacterial load reduction; Dose at 1.7 log reduction ([16]; Neutropenic thigh, S. aureus 1016, single i.v. bolus, 24 h): 4 mg/kg bw/day; bacterial load reduction ([16]; balb/c mice neutropenia thigh model, Gram positive S1016): significant bacterial load reduction; MIC90 [17]: 3.4 µg/mL (≈ 6.66 µM); MIC50 [18]: 128 µg/mL (≈ 251 µM); MIC90 [18]: 128 µg/mL (≈ 251 µM); effect on M. tuberculosis [19]: effective against M. tuberculosis; MIC50 [20]: 128 µg/mL (≈ 251 µM); MIC90 [20]: 128 µg/mL (≈ 251 µM); MIC50 [21]: < 0.25 µg/mL; MIC90 [21]: < 0.25 µg/mL; MIC50 [22]: > 128 µg/mL; MIC90 [22]: > 128 µg/mL; MIC50 [23]: < 0.25 µg/mL; MIC90 [23]: 0.4 µg/mL (≈ 0.783 µM); MIC50 [24]: < 0.25 µg/mL; MIC90 [24]: < 0.25 µg/mL; MIC90 [25]: 6.5 µg/mL (≈ 12.7 µM); MIC90 [26]: 0.7 µg/mL (≈ 1.37 µM); MIC50 [27]: 0.24 µg/mL (≈ 0.47 µM); MIC90 [27]: 0.8 µg/mL (≈ 1.57 µM); MIC50 [28]: > 128 µg/mL; MIC90 [28]: 128 µg/mL (≈ 251 µM); MIC90 ([29]; ATCC 25922, Table 6): 7.3 ± 0.024 µg/mL (≈ 14.3 µM); MIC50 ([29]; Escherichia coli, ATCC25922): 3 µg/mL (≈ 5.87 µM); MIC90 ([29]; Escherichia coli, ATCC25922): 7.3 µg/mL (≈ 14.3 µM); MIC90 [30]: 7.3 µg/mL (≈ 14.3 µM); MIC50 [31]: 5.22 µg/mL (≈ 10.2 µM); MIC90 [31]: > 128 µg/mL; MIC50 [32]: 3.9 µg/mL (≈ 7.64 µM); MIC90 [32]: 6.5 µg/mL (≈ 12.7 µM); MIC50 [33]: < 0.25 µg/mL; MIC90 [33]: < 0.25 µg/mL; MIC50 [34]: 4.6 µg/mL (≈ 9.01 µM); MIC90 [34]: 12.9 µg/mL (≈ 25.3 µM); MIC50 [35]: 3.6 µg/mL (≈ 7.05 µM); MIC90 [35]: 10.8 µg/mL (≈ 21.1 µM); MIC50 [36]: < 0.25 µg/mL; MIC90 [36]: 0.25 µg/mL (≈ 0.49 µM); MIC50 [37]: 128 µg/mL (≈ 251 µM); MIC90 [37]: 128 µg/mL (≈ 251 µM); MIC90 [38]: 12.8 µg/mL (≈ 25.1 µM); MIC50 [39]: 0.5 µg/mL (≈ 0.979 µM); MIC90 [39]: 1 µg/mL (≈ 1.96 µM)

**Q.** Which results are given for `CCCCN1CCN(c2ccc3nc(-c4ccc5[nH]c(-c6ccc(OCC)cc6)nc5c4)[nH]c3c2)CC1` [SP12b, 5-(4-butylpiperazin-1-yl)-2′-(4-ethoxyphenyl)-1H,1′H-2,5′-bibenzo[d]imidazole]?
**A.** MIC50 [1]: < 0.25 µg/mL; MIC90 [1]: 0.25 µg/mL (≈ 0.505 µM); MIC50 [2]: 1.8 µg/mL (≈ 3.64 µM); MIC90 [2]: 60 µg/mL (≈ 121 µM); MIC90 [3]: 30.9 µg/mL (≈ 62.5 µM); MIC50 [4]: 3.4 µg/mL (≈ 6.87 µM); MIC90 [4]: 6.8 µg/mL (≈ 13.7 µM); MIC90 [5]: 5.7 µg/mL (≈ 11.5 µM); MIC90 [6]: 9.8 µg/mL (≈ 19.8 µM); MIC50 [7]: 25.9 µg/mL (≈ 52.4 µM); MIC90 [7]: 59.5 µg/mL (≈ 120 µM); sensitisation of efflux deleted strains [8]: more sensitised; MIC90 [9]: 32 µg/mL (≈ 64.7 µM); MIC50 ([10]; Staphylococcus): < 0.25 µg/mL; MIC90 ([10]; Staphylococcus): 0.92 µg/mL (≈ 1.86 µM); MIC50 [11]: < 0.25 µg/mL; MIC90 [11]: 2 µg/mL (≈ 4.04 µM); MIC50 [12]: < 0.25 µg/mL; MIC90 [12]: 0.92 µg/mL (≈ 1.86 µM); MIC50 [13]: 3.7 µg/mL (≈ 7.48 µM); MIC90 [13]: 9.08 µg/mL (≈ 18.4 µM); MIC90 [14]: 7.4 µg/mL (≈ 15 µM); MIC90 [17]: 3.9 µg/mL (≈ 7.88 µM); MIC50 [18]: > 128 µg/mL; MIC90 [18]: 128 µg/mL (≈ 259 µM); effect on M. tuberculosis [19]: effective against M. tuberculosis; MIC50 [20]: > 128 µg/mL; MIC90 [20]: 128 µg/mL (≈ 259 µM); MIC50 [21]: 0.4 µg/mL (≈ 0.809 µM); MIC90 [21]: 0.8 µg/mL (≈ 1.62 µM); MIC50 [22]: > 128 µg/mL; MIC90 [22]: > 128 µg/mL; MIC50 [23]: < 0.25 µg/mL; MIC90 [23]: 0.42 µg/mL (≈ 0.849 µM); MIC50 [24]: < 0.25 µg/mL; MIC90 [24]: 1 µg/mL (≈ 2.02 µM); MIC90 [25]: 30.9 µg/mL (≈ 62.5 µM); MIC90 [26]: 2.8 µg/mL (≈ 5.66 µM); MIC50 [27]: 1.24 µg/mL (≈ 2.51 µM); MIC90 [27]: 3.01 µg/mL (≈ 6.09 µM); MIC50 [28]: > 128 µg/mL; MIC90 [28]: 128 µg/mL (≈ 259 µM); MIC50 [29, 41]: 9.5 µg/mL (≈ 19.2 µM); MIC90 [29, 41]: 24.9 µg/mL (≈ 50.3 µM); MIC90 [30]: 1.78 µg/mL (≈ 3.6 µM); MIC50 [31]: 40.5 µg/mL (≈ 81.9 µM); MIC90 [31]: 70.3 µg/mL (≈ 142 µM); MIC50 [32]: 15 µg/mL (≈ 30.3 µM); MIC90 [32]: 27 µg/mL (≈ 54.6 µM); MIC50 [33]: < 0.25 µg/mL; MIC90 [33]: 2 µg/mL (≈ 4.04 µM); MIC50 [34]: 14.6 µg/mL (≈ 29.5 µM); MIC90 [34]: 28.6 µg/mL (≈ 57.8 µM); MIC50 [35]: 12 µg/mL (≈ 24.3 µM); MIC90 [35]: 16 µg/mL (≈ 32.3 µM); MIC50 [36]: < 0.25 µg/mL; MIC90 [36]: 0.25 µg/mL (≈ 0.505 µM); MIC50 [37]: > 128 µg/mL; MIC90 [37]: 128 µg/mL (≈ 259 µM); MIC90 [38]: 17.8 µg/mL (≈ 36 µM); MIC50 [39]: > 128 µg/mL; MIC90 [39]: > 128 µg/mL
